Assay results: patent publication US9573975B2, “Melanoma antigen peptide and uses thereof” (INSERM (INSTITUT NATIONAL DE LA SANTE ET DE LA RECHERCHE …, priority 2012, dated 2017)

Key:
Assay type in all cases: cell-based, human
[1] = test system: MELOE-111-30 specific CD4 T cell clone (1A5-DRβ1*1101); assay: Peptide stimulation of CD4 T cell clone 1A5, intracellular cytokine staining; conditions: cognate peptide 10 μM, 5 hours
Procedure: (§1) FIG. 5: Minimal peptides recognized by MELOE-1 specific CD4 T cell clones. MELOE-1 specific CD4 T cell clones were incubated with various concentrations of the indicated peptides during 5 hours in presence of Brefeldin A. TNF-α production was assessed by intracellular labeling with an anti-TNF-α specific antibody. The core peptide sequence is indicated in bold on each figure panel, and black circles illustrate the best fitting peptide.
(§2) Lymphocytes were stimulated for 5 hours in the presence of brefeldin A (10 μg/mL) either with peptide alone (10 μM) in an autopresentation assay or with B-EBV or HLA-class II expressing melanoma cells pulsed 2 hours with the cognate peptide, at a ratio 1:2. In some experiments, blocking mAb against HLA-DP (clone B7.21 from Dr Charron, UMR940, Paris), HLA-DQ (clone SPVL3, Beckman Coulter) or HLA-DR (clone L243, BD Biosciences) were added at a concentration of 12.5 μg/ml. Cells were then stained with APC-conjugated anti-CD4 mAb, fixed with 4% paraformaldehyde, labeled with PE-conjugated anti-cytokine mAb and analyzed by flow cytometry.
(§3) We also documented the T helper profile of each T cell clone, by stimulating the CD4 T cell clones with the cognate peptide, and analyzing cytokine production. All the clones expressed Th1 cytokines (TNFα, IFNγ, IL2 and GM-CSF). On the contrary, these clones differ in their expression of Th2 cytokines. Indeed, the two DQ2 restricted T cell clones (9C12 and 4E2) and the DR1 restricted one (5F9) also strongly express two Th2 cytokines (IL4, and IL13), whereas the DR11-restricted T cell clone only weakly expressed IL4 (Table IV). None of the CD4 T cell expresses IL10 or IL5 at a significant level.
(§4) Three shorter peptides were better recognized by the DQ2-restricted 9C12 T cell clone, the shortest one being MELOE-17-19 (13-mer), recognized with an EC50 of 100 nM. The deletion of the two amino acids in C-term strongly reduces T cell clone recognition. […] Nonetheless all of these clones recognized a series of shortened peptides, thus we cannot formally assess that the shortest ones will be the exact peptides naturally presented on class II molecules.

[2] = test system: MELOE-111-30 specific CD4 T cell clone (5F9-DRβ1*0101); assay: Peptide stimulation of CD4 T cell clone 5F9, intracellular cytokine staining; conditions: clone 5F9, cognate peptide 10 μM, 5 hours
Procedure: as §1, §2, §3, §4

[3] = test system: MELOE-1 specific T cell clones; assay: HLA restriction of MELOE-1 specific T cell clones (anti-HLA blocking antibodies, HLA-matched B-EBV cell lines)
Procedure: FIG. 3: HLA-restricting element of MELOE-1 specific T cell clones and reactivity against HLA-matched melanoma cell lines. The HLA restriction of MELOE-1 specific T cell clones was first assessed using anti-HLA blocking antibodies (upper panel). T cell clones were stimulated for 5 hours in the presence of brefeldin A (10 μg/mL) either with peptide alone (10 μM) in an autopresentation assay and in presence or not of blocking antibodies at a concentration of 12.5 μg/mL. HLA restriction was confirmed with HLA-matched B-EBV cell lines pulsed 2 hrs with the cognate peptide, at a ratio 1:2 (middle panel). Reactivity of each T cell clone against HLA-class II expressing melanoma cells was assessed, in presence or not of exogeneous peptide (lower panel). After 5 hours of stimulation, cells were then stained with APC-conjugated anti-CD4 mAb, fixed with 4% paraformaldehyde, labeled with PE-conjugated anti-TNF-α mAb and analyzed by flow cytometry.
as §2
In order to formally characterize the recognized epitopes, we derived CD4 T cell clones specific for each region of MELOE-1 by limiting dilution, from microcultures of healthy donors or melanoma patients, containing at least 0.5% of specific CD4 T cells. We succeeded to derive CD4 specific T cell clones from HD17, HD22, HD25 and Pt≠3 microcultures, which were reactive against MELOE-12-21 (HD22), MELOE-111-30 (HD17 and Pt≠3) and MELOE-126-46 (HD25). From each cloning experiment, we obtained between one and ten reactive CD4 T cell clones, that turned out to be the same clonotype after CDR3B sequencing (Table IV). A single CD4 T cell clone for each specificity was used for further experiments. The HLA-restriction was determined for each T cell clone, first by using HLA-class II blocking monoclonal antibodies (FIG. 3, upper panel), and further by testing the recognition of HLA-matched B-EBV cell lines loaded with each recognized long peptide (FIG. 3 middle panel). The two T cell clones named 9C12 and 4E2, derived from HD22 and HD25 and specific for MELOE-12-21 and MELOE-126-46 were restricted by the HLA-DQβ1*0202 and the DQβ1*0201 molecules respectively. […]

[4] = test system: MELOE-12-21 specific CD4 T cell clone (9C12-DQβ1*0202); assay: Peptide stimulation of CD4 T cell clone 9C12, intracellular cytokine staining; conditions: cognate peptide 10 μM, 5 hours
Procedure: as §1, §2, §3, §4

## TSREQFLPSEGAACPPWHPS [MELOE-111-30]
[1]
  Cytokine profile: GM-CSF: GM-CSF ^high
  Cytokine profile: IFN: IFN ^high
  Cytokine profile: IL2: IL2 ^high
  Cytokine profile: IL4: IL4 ^low
  Cytokine profile: IL5: IL5 ^neg
  Cytokine profile: IL10: IL10 ^neg
  Cytokine profile: IL13: IL13 ^neg
[1]; autopresentation
  Cytokine profile: TNF: TNF ^high
[2]
  Cytokine profile: GM-CSF: GM-CSF ^high
  Cytokine profile: IFN: IFN ^high
  Cytokine profile: IL2: IL2 ^low
  Cytokine profile: IL4: IL4 ^high
  Cytokine profile: IL5: IL5 ^neg
  Cytokine profile: IL10: IL10 ^neg
  Cytokine profile: IL13: IL13 ^high
[2]; autopresentation
  Cytokine profile: TNF: TNF ^high
[3]; T cell clone 1A5
  HLA-restricting element of the peptide-specific T cell clone: HLA-DRβ1*1101
[3]; T cell clone 5F9
  HLA-restricting element of the peptide-specific T cell clone: HLA-DRβ1*0101

## SCVGYPDEATSREQFLPSEG (SCVGYPDEATSREQFLPSEC) [MELOE-12-21]
[4]
  Cytokine profile: GM-CSF: GM-CSF ^high
  Cytokine profile: IFN: IFN ^high
  Cytokine profile: IL2: IL2 ^high
  Cytokine profile: IL4: IL4 ^high
  Cytokine profile: IL5: IL5 ^low
  Cytokine profile: IL10: IL10 ^neg
  Cytokine profile: IL13: IL13 ^high
[4]; autopresentation
  Cytokine profile: TNF: TNF ^high
[3]; T cell clone 9C12 (from HD22)
  HLA-restricting element of the peptide-specific T cell clone: HLA-DQβ1*0202
